The values that follow come from the supplement of paper PMC10307832.

What all share (test): relative viability (nuclei count vs DMSO), 5 days (fraction); higher = more cells survive
Compound in assay [1]: COc1cc2/c(=N/c3ccc(Br)cc3F)nc[nH]c2cc1OCC1CCN(C)CC1 [Vandetanib] + CC(=O)c1c(C)c2cnc(Nc3ccc(N4CCNCC4)cn3)nc2n(C2CCCC2)c1=O [Palbociclib] (partner 0.5 µM)
The gist of the method:
(§1)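 Medians of duplicate plates are given as relative viability. That measure is the nuclei count in treated wells divided by the count in vehicle wells. Counts were taken on 4× images of lung cancer cell lines in 1536-well plates, 5 days after pin-tool dosing the day after seeding with one drug alone or a fixed anchor-drug dose plus five library-drug doses (not always all listed) in √10 steps.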

Compound in assay [2]: COc1cc(N2CCC(N3CCN(C)CC3)CC2)ccc1Nc1ncc(Cl)c(Nc2ccccc2S(=O)(=O)C(C)C)n1 [NVP-TAE684] + Cc1nc(NC(=O)N2CCC[C@H]2C(N)=O)sc1-c1ccnc(C(C)(C)C(F)(F)F)c1 [Alpelisib] (partner 2 µM)
A digest of the protocol:
as §1

Compound in assay [3]: COc1cc2/c(=N/c3ccc(Br)cc3F)nc[nH]c2cc1OCC1CCN(C)CC1 [Vandetanib] + CS(=O)(=O)N1CCN(Cc2cc3nc(-c4cccc5[nH]ncc45)nc(N4CCOCC4)c3s2)CC1 [Pictilisib] (partner 1 µM)
The gist of the method: as §1

Compound in assay [4]: COc1cc(N2CCC(N3CCN(C)CC3)CC2)ccc1Nc1ncc(Cl)c(Nc2ccccc2S(=O)(=O)C(C)C)n1 [NVP-TAE684] + CCNC(=O)c1noc(-c2cc(C(C)C)c(O)cc2O)c1-c1ccc(CN2CCOCC2)cc1 [Luminespib] (partner 0.01 µM)
The gist of the method: as §1

In the case of 201T, the relative viability came to 0.35 in assay [1] (first compound 0.02 µM); 0.353 in assay [1] (first compound 0.06325 µM); 0.332 in assay [1] (first compound 0.2 µM); 0.314 in assay [1] (first compound 0.6325 µM); 0.335 in assay [1] (first compound 2 µM); 0.976 in assay [2] (first compound 0.2 µM). For the same cell line, the relative viability in assay [2] (first compound 0.6325 µM) worked out at 1.05; in assay [2] (first compound 2 µM), 0.839; in assay [3] (first compound 0.02 µM), 0.663; in assay [3] (first compound 0.06325 µM), 0.648; in assay [3] (first compound 0.2 µM), 0.652; in assay [3] (first compound 0.6325 µM), 0.706. Moreover, the relative viability in assay [3] (first compound 2 µM) is 0.692; in assay [4] (first compound 0.2 µM) it was 0.964; in assay [4] (first compound 0.6325 µM), 0.992; in assay [4] (first compound 2 µM), 0.69.
LU99A: the relative viability stood at 0.378 in assay [1] (first compound 0.02 µM); 0.428 in assay [1] (first compound 0.06325 µM); 0.337 in assay [1] (first compound 0.2 µM); 0.359 in assay [1] (first compound 0.6325 µM); 0.376 in assay [1] (first compound 2 µM); 0.594 in assay [2] (first compound 0.2 µM). Moreover, the relative viability was determined as 0.524 in assay [2] (first compound 0.6325 µM); 0.328 in assay [2] (first compound 2 µM); 0.304 in assay [3] (first compound 0.02 µM); 0.327 in assay [3] (first compound 0.06325 µM); 0.336 in assay [3] (first compound 0.2 µM); 0.29 in assay [3] (first compound 0.6325 µM). Besides, the relative viability in assay [3] (first compound 2 µM) is 0.306; in assay [4] (first compound 0.2 µM) it was 0.301; in assay [4] (first compound 0.6325 µM) it was 0.259; in assay [4] (first compound 2 µM), 0.253.
Take NCI-H647: the relative viability in assay [1] (first compound 0.02 µM) was found to be 0.402; in assay [1] (first compound 0.06325 µM), 0.385; in assay [1] (first compound 0.2 µM) it was 0.384; in assay [1] (first compound 0.6325 µM), 0.358; in assay [1] (first compound 2 µM), 0.381; in assay [2] (first compound 0.2 µM), 1.32. Moreover, the relative viability in assay [2] (first compound 0.6325 µM) turned out to be 1.1; in assay [2] (first compound 2 µM) it was 0.377; in assay [3] (first compound 0.02 µM), 0.457; in assay [3] (first compound 0.06325 µM), 0.419; in assay [3] (first compound 0.2 µM), 0.349; in assay [3] (first compound 0.6325 µM), 0.412. For the same cell line, the relative viability in assay [3] (first compound 2 µM) turned out to be 0.161; in assay [4] (first compound 0.2 µM) it was 0.133; in assay [4] (first compound 0.6325 µM), 0.108; in assay [4] (first compound 2 µM), 0.264.
In the case of LC-2-ad, the relative viability in assay [1] (first compound 0.02 µM) was found to be 0.466; in assay [1] (first compound 0.06325 µM), 0.489; in assay [1] (first compound 0.2 µM), 0.526; in assay [1] (first compound 0.6325 µM), 0.441; in assay [1] (first compound 2 µM) it was 0.422; in assay [2] (first compound 0.2 µM) it was 0.813. Moreover, the relative viability in assay [2] (first compound 0.6325 µM) was determined as 0.801; in assay [2] (first compound 2 µM), 0.232; in assay [3] (first compound 0.02 µM), 0.503; in assay [3] (first compound 0.06325 µM), 0.4; in assay [3] (first compound 0.2 µM), 0.167; in assay [3] (first compound 0.6325 µM) it was 0.324. Also, the relative viability in assay [3] (first compound 2 µM) is 0.19; in assay [4] (first compound 0.2 µM), 1.01; in assay [4] (first compound 0.6325 µM), 0.918; in assay [4] (first compound 2 µM) it was 0.465.
On to LK-2, for which the relative viability in assay [1] (first compound 0.02 µM) worked out at 0.57; in assay [1] (first compound 0.06325 µM), 0.811; in assay [1] (first compound 0.2 µM), 0.859; in assay [1] (first compound 0.6325 µM) it was 0.58; in assay [1] (first compound 2 µM), 0.66; in assay [2] (first compound 0.2 µM) it was 0.846. Moreover, the relative viability in assay [2] (first compound 0.6325 µM) is 1.07; in assay [2] (first compound 2 µM), 0.574; in assay [3] (first compound 0.02 µM), 0.585; in assay [3] (first compound 0.06325 µM) it was 0.652; in assay [3] (first compound 0.2 µM), 0.531; in assay [3] (first compound 0.6325 µM), 0.559. Further, the relative viability in assay [3] (first compound 2 µM) is 0.478; in assay [4] (first compound 0.2 µM) it was 0.169; in assay [4] (first compound 0.6325 µM) it was 0.157; in assay [4] (first compound 2 µM) it was 0.167.
Take NCI-H520: the relative viability worked out at 0.254 in assay [1] (first compound 0.02 µM); 0.196 in assay [1] (first compound 0.06325 µM); 0.293 in assay [1] (first compound 0.2 µM); 0.273 in assay [1] (first compound 0.6325 µM); 0.256 in assay [1] (first compound 2 µM); 1.17 in assay [2] (first compound 0.2 µM). For the same cell line, the relative viability in assay [2] (first compound 0.6325 µM) worked out at 1.16; in assay [2] (first compound 2 µM) it was 0.354; in assay [3] (first compound 0.02 µM), 0.289; in assay [3] (first compound 0.06325 µM), 0.258; in assay [3] (first compound 0.2 µM), 0.245; in assay [3] (first compound 0.6325 µM), 0.345. Moreover, the relative viability in assay [3] (first compound 2 µM) was 0.263; in assay [4] (first compound 0.2 µM), 0.189; in assay [4] (first compound 0.6325 µM), 0.219; in assay [4] (first compound 2 µM), 0.219.
For the cell line NCI-H1975, the relative viability in assay [1] (first compound 0.02 µM) came to 0.539; in assay [1] (first compound 0.06325 µM), 0.542; in assay [1] (first compound 0.2 µM), 0.593; in assay [1] (first compound 0.6325 µM), 0.585; in assay [1] (first compound 2 µM), 0.61; in assay [2] (first compound 0.2 µM) it was 0.703. The relative viability in assay [2] (first compound 0.6325 µM) came to 0.545; in assay [2] (first compound 2 µM), 0.235; in assay [3] (first compound 0.02 µM) it was 0.285; in assay [3] (first compound 0.06325 µM), 0.26; in assay [3] (first compound 0.2 µM), 0.296; in assay [3] (first compound 0.6325 µM), 0.27. For the same cell line, the relative viability in assay [3] (first compound 2 µM) is 0.301; in assay [4] (first compound 0.2 µM) it was 0.23; in assay [4] (first compound 0.6325 µM) it was 0.138; in assay [4] (first compound 2 µM), 0.167.
